Measured values as given in PMC6539602, “Antioxidant and Photoprotective Activity of Apigenin and Its Potassium Salt Derivative in Human Keratinocytes and Absorption in Caco-2 Cell Monolayers” (International Journal of Molecular Sciences, 2019).

Assays:
[1] = Trolox equivalent antioxidant capacity (TEAC); assay type: biochemical; details: Trolox equivalents per millimole of compound; mean ± SD
Method: (§1) Three different methods were performed to determine the antioxidant capacity of both apigenins. The Trolox equivalent antioxidant capacity (TEAC) was performed, as previously reported to establish the ABTS^·+ scavenging ability of both compounds [21]. The TEAC of the samples was calculated from the standard curve of Trolox, and the results are expressed in micromoles of Trolox equivalents (TE) per millimole of compound. The ferric reducing antioxidant power (FRAP) assay was performed, as described elsewhere. The reduction of a ferric-tripyridyltriazine complex was estimated, and the results are expressed in micromoles of Fe^2+ per millimole of compound. To assay the capacity of the compounds to scavenge peroxyl radicals, a validated assay of the oxygen radical absorbance capacity (ORAC) method was used. The ORAC assay was carried out on a microplate reader (POLAstar Omega, BMG LabTech GmbH, Offenburg, Germany) with 495 nm excitation and 520 nm emission filters to monitor fluorescein oxidation. The results are expressed in micromoles of TE per millimole of compound.

[2] = Ferric reducing antioxidant power (FRAP); assay type: biochemical; details: mean ± SD
Method: as §1

[3] = Oxygen radical absorbance capacity (ORAC); assay type: biochemical; details: Trolox equivalents per millimole of compound; mean ± SD
Method: as §1

[4] = Caco-2 cell monolayer bidirectional permeability; assay type: in vitro ADME; details: human
Method: The cells were seeded into 6-well inserts with a polyethylene terephthalate (PET) membrane (pore size of 0.4 µm) (BD Falcon) at a density of 1.0 × 10^5 cells. Cell culture was maintained at 37 °C under 90% humidity and 5% CO2. The medium was replaced every 2–3 days for both the apical (AP) and basolateral (BL) chambers of the transwell filters. Cell monolayers were used 19–21 days after seeding, once confluence and differentiation were achieved. To check the integrity of each cell monolayer, the transepithelial electrical resistance (TEER) was measured before and after the experiments with an epithelial voltohmmeter (Millicell-ERS®). Permeability studies were performed by adding apigenin and apigenin-K at a concentration of 50 µM dissolved in HBSS medium (pH 7.4). The transport experiment was initiated by removing the culture medium from the AP and BL chambers. HBSS medium was prewarmed to wash the Caco-2 monolayers twice and, subsequently, to incubate the monolayers for 30 min at 37 °C. Afterwards, the test compounds were added to the apical (AP) or basolateral (BL) chambers to perform bidirectional permeability studies, while the receiving chamber contained the corresponding volume of HBSS. The six-well plate containing the cell monolayers was put into an orbital environmental shaker, which was set at a constant temperature (37 °C) and agitation rate (54 rpm) for the duration of the permeability experiments. […] The apparent permeability (Papp) values for each compound and direction can be calculated according to the following equation:(2) Papp= dQ/dt×1/A×C0×60 where Papp is the apparent permeability (cm/s), dQ/dt is the steady state flux, A is the diffusion area of the membrane (cm^2), C0 is the initial compound concentration in the donor compartment (µM) and 60 is a conversion factor [54]. […] In addition, the efflux ratio (ER) was calculated to determine the absorption mechanism, such as the ratio of Papp (BL-AP) to Papp (AP-BL). (3) ER= Papp (BL-AP)/Papp (AP-BL) The analyses of the samples from the permeability assay were analyzed via a high-performance liquid chromatograph Agilent LC 1100 series (Agilent Technologies, Inc., Palo Alto, CA, USA) controlled by the ChemStation software and equipped with a pump, autosampler, column oven and UV-Vis diode array detector. The samples were separated on a Poroshell 120 SB-C18 column (2.7 µm, 4.6 × 150 mm) after each 10 µL injection and were monitored at 280 nm. […] Quantitative evaluations of the apigenin or apigenin-K concentration were performed using the corresponding calibration graph of each compound with a six-point regression curve (r^2 > 0.999).

Caco-2 cell monolayer = system: Caco-2 cell monolayer; set-up: method as in PMID 29186068; details: Caco-2 cell model; cited from earlier work

efflux ratio at 120 min, 50 µM ([4]; Caco-2, pH 7.4, Papp (BL-AP)/Papp (AP-BL)): 0.51 | Papp A→B at 120 min, 50 µM ([4]; Caco-2, apical-to-basolateral, 50 µM, HBSS pH 7.4, 120 min, mean of 6 replicates ± SD): 18.1 ± 1.7 ×10⁻⁶ cm/s | Papp B→A at 120 min, 50 µM ([4]; Caco-2, basolateral-to-apical, 50 µM, HBSS pH 7.4, 120 min, mean of 6 replicates ± SD): 9.3 ± 1.3 ×10⁻⁶ cm/s | Papp at 120 min, 50 µM ([4]; pH 7.4, Caco-2 cell model, read-out: apparent permeability (Papp)): 18.1 ×10⁻⁶ cm/s
SMILES: O=c1cc(-c2ccc(O)cc2)oc2cc(O)cc(O)c12 [Apigenin, 4′,5,7-trihydroxyflavone]
TEAC [1]: 2022.2 ± 154.8 µmol TE/mmol | FRAP [2]: 113.2 ± 12.2 µmol Fe^2+/mmol | ORAC [3]: 887.9 ± 5.8 µmol TE/mmol | apparent permeability relative to its flavonol kaempferol (Caco-2 cell monolayer): 2.5 fold
